Patent publication US20110160167A1, “Steroid Derivatives Acting As Glucocorticosteroid Receptor Agonists” (AstraZeneca AB, priority 2007, published 2011)
pIC50: −log10 of the molar value.

Biological target: T1, recombinant human GR (Homo sapiens, UniProt P04150)
T1 construct: purchased Panvera/Invitrogen P2812 (kit P2893)
T1 sequence (P04150 1-777): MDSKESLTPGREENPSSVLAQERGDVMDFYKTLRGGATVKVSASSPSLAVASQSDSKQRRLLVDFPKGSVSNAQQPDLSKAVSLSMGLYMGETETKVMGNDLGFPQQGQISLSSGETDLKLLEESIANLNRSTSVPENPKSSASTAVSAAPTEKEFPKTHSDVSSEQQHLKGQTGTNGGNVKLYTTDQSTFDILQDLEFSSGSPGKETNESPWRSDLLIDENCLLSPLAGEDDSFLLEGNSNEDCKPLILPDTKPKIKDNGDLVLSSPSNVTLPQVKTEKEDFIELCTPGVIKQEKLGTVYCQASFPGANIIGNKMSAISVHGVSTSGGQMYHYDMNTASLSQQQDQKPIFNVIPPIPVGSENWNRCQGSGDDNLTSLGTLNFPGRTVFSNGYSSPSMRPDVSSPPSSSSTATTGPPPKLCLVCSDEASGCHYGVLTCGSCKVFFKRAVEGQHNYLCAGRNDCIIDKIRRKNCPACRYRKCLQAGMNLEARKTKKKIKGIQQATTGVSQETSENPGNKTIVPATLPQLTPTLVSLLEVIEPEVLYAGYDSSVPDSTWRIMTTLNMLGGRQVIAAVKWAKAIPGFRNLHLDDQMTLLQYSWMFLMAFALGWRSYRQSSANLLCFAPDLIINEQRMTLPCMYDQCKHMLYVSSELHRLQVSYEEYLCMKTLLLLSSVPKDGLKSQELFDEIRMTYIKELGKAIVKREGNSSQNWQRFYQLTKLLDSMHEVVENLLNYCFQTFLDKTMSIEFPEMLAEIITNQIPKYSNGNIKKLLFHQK
Assay: Human Glucocorticoid Receptor (GR) Assay (fluorescence polarization, Panvera/Invitrogen kit)
Settings: GS Red tracer, 2 hours at room temperature, 100% control 10 μM Dexamethasone, read-out: Inhibition of GR binding, IC50
Experimental: Human Glucocorticoid Receptor (GR) Assay The assay is based on a commercial kit from Panvera/Invitrogen (Part number P2893). The assay technology is fluorescence polarization. The kit utilises recombinant human GR (Panvera, Part number P2812), a Fluoromone™ labelled tracer (GS Red, Panvera, Part number P2894) and a Stabilizing Peptide 10× (Panvera, Part number P2815). The GR and Stabilizing Peptide reagents are stored at −70° C. while the GS Red is stored at −20° C. Also included in the kit are 1M DTT (Panvera, Part number P2325, stored at −20° C.) and GR Screening buffer 10× (Panvera, Part number P2814, stored at −70° C. initially but once thawed stored at room temperature). Avoid repeated freeze/thaws for all reagents. The GR Screening buffer 10× comprises 100 mM potassium phosphate, 200 mM sodium molybdate, 1 mM EDTA and 20% DMSO. Test compounds (1 μL) and controls (1 μL) in 100% DMSO were added to black polystyrene 384-well plates (Greiner low volume black flat-bottom, part number 784076). 0% control was 100% DMSO and 100% control was 10 μM Dexamethasone. Background solution (8 μL; assay buffer 10×, Stabilizing Peptide, DTT and ice cold MQ water) was added to the background wells. GS Red solution (7 μL; assay buffer 10×, Stabilizing Peptide, DTT, GS Red and ice cold water) was added to all wells except background wells. GR solution (7 μL; assay buffer 10×, Stabilizing Peptide, DTT, GR and ice cold water) was added to all wells. The plate was sealed and incubated in a dark at room temperature for 2 hours. The plate was read in an Analyst plate reader (LJL Biosystems/Molecular Devices Corporation) or other similar plate reader capable of recording fluorescence polarization (excitation wavelength 530 nm, emission wavelength 590 nm and a dichroic mirror at 561 nm).

pIC50: 8.23
SMILES: CCC[C@@H]1O[C@@H]2C[C@H]3[C@@H]4CCC5=Cc6c(cnn6-c6ccc(F)c(C(=O)OC)c6)C[C@]5(C)[C@H]4[C@@H](O)C[C@]3(C)[C@]2(C(=O)CO)O1 [Example 22, Methyl 2-fluoro-5-[(4aR,4bS,5S,6aS,6bS,8R,9aR,10aS,10bS)-6b-glycoloyl-5-hydroxy-4a,6a-dimethyl-8-propyl-4a,4b,5,6,6a,6b,9a,10,10a,10b,11,12-dodecahydro[1,3]dioxolo[3′,4′]cyclopenta[1′,2′:5,6]naphtho[1,2-f]indazol-1(4H)-yl]benzoate]
